Measurements reported in US20240424005A1, “DIAGNOSING, MONITORING AND TREATING NEUROLOGICAL DISEASE WITH PS[…] DERIVATIVES AND mRNA MEASUREMENTS” (NOVA MENTIS LIFE SCIENCE CORP., priority 2021, published 2024).
Entries after “also recorded” stand apart in the source; their conditions may differ.

What was measured:
[1] = tested on: red blood cells; experiment: Toxicity and oxidative stress in red blood cells
[2] = tested on: VPA-exposed rats; experiment: Elevated plus-maze test in rats prenatally exposed to valproic acid; type: in vivo, rat; details: offspring of VPA-treated pregnant rats
Protocol: Female Wistar rats (Charles River), weighing 250±15 g, were mated overnight. The morning when spermatozoa were found was designated as gestational day 1 (GD1). Pregnant rats were singly housed in Macrolon cages (401×26w x 20h cm), under controlled conditions (temperature 20-21° C., 55-65% relative humidity and 12/12h light cycle with lights on at 07:00 a.m.). Food and water were available ad libitum. On gestational day 12.5, females received a single intraperitoneal injection of either sodium valproate (VPA) or saline (SAL). […] Newborn litters found up to 5.00 p.m. were considered to be born on that day (Postnatal day (PND) 0). On PND 1, the litters were culled to eight animals (six males and two females). On PND 21, the pups were weaned and housed in groups of three. […]
The apparatus comprised two open and two closed arms (501×10×40 h cm) that extended from a common central platform (101×10 w cm). […] Each session was recorded with a camera positioned above the apparatus for subsequent behavioral analysis performed using the Observer 3.0 software (Noldus Information Technology). The following parameters were analyzed: […]
Data are expressed as mean±SEM. To assess the effects of prenatal VPA exposure and psilocybin on behavioral parameters, data were analyzed by two-way ANOVA, with prenatal treatment and postnatal treatment as factors. […]

[3] = Observation of discomfort/intoxication after repeated oral microdosing; type: in vivo, rat; details: Experiment 3: 0.1 or 0.3 mg/kg p.o. repeated; immediately and days after administration
Protocol: (§1) We performed three experiments testing Fmr1-^Δexon 8 rats and WT controls in the novel object recognition task using three different treatment schedules for psilocybin administration: • 1. Experiment 1: a single dose of either 1 (Hibicke et al., 2020) or 3 mg/kg psilocybin given intraperitoneally (i.p.) eight days before behavioral testing (FIG. 8A); • 2. Experiment 2: repeated microdoses of psilocybin (0.1 mg/kg) given i.p. three times every other day, with behavioral testing starting five days after the last administration (FIG. 8B); • 3. Experiment 3: repeated microdoses of psilocybin (0.1 or 0.3 mg/kg) (Higgins et al., 2021) given orally (p.o.) three times every other day, for two consecutive weeks, with behavioral testing starting five days after the last administration (FIG. 8C).
To increase the translational value of our findings, we finally decided to assess the effects of repeated oral administration of 0.1 and 0.3 mg/kg psilocybin microdoses, for two weeks every other day, in our Fmr1-^Δexon 8 rats. The animals were tested five days after the last treatment, to prevent any hallucinogenic effect of the drug at the time of behavioral performance.

[4] = 0.1 mg/kg, rats; Higgins et al., 2021; cited from earlier work
[5] = tested on: wild-type (WT) animals; experiment: Novel object recognition task in wild-type control rats; type: in vivo, rat
Protocol: The experiments were performed in Fmr1-^Δexon 8 rats on a Sprague-Dawley background (Horizon Discovery, formerly SAGE Labs, USA), proposed as a genetic model of ASD and rat model of FXS (Golden et al., 2019; Schiavi et al., 2022); the corresponding wild-type (WT) animals were used as controls.
as §1
We have recently shown that Fmr1-^Δexon 8 rats show impaired novel object recognition memory at adolescence (Schiavi et al., 2022). […] On the training trial, each rat was individually placed into an open-field arena containing two identical objects (A1 and A2), equidistant from each other, and allowed to explore the objects for 5 min. Thirty minutes later, one copy of the familiar object (A3) and a new object (B) were placed in the same location as during the training trial. Each rat was placed in the apparatus for 5 minutes, and the time spent exploring each object was recorded. The discrimination index was calculated as the difference in time exploring the novel and the familiar objects, expressed as the percentage ratio of the total time spent exploring both objects (Schiavi et al., 2022).
Data are expressed as mean±SEM and were analyzed by two-way ANOVA, with genotype (WT or Fmr1-^Δexon 8) and treatment (psilocybin or vehicle) as factors. Tukey's post hoc test was used for individual group comparisons. The accepted value for significance was set at p<0.05. Data were analyzed using GraphPad Prism 8 software.

| SMILES | toxicity in red blood cells [1] | safety of treatment in the VPA model [2] | signs of discomfort/intoxication in the animals [3] | side effects on motor activity or stereotypies [4] | cognitive performance of WT animals (% discrimination index) ([5]; Experiment 1: single dose 1 mg/kg i.p. eight days before testing, WT rats) | cognitive performance of WT animals (% discrimination index) ([5]; Experiment 1: single dose 3 mg/kg i.p. eight days before testing, WT rats vs WT vehicle, p<0.001, 3 mg/kg) | cognitive performance of WT animals ([5]; Experiment 2: 0.1 mg/kg i.p. three times every other day, WT rats) | cognitive performance of WT animals ([5]; Experiment 3: 0.1 or 0.3 mg/kg p.o. repeated for two weeks, WT rats) | performance in wild-type (WT) control animals ([5]; repeated microdoses (schedule not given at the place)) |
| --- | --- | --- | --- | --- | --- | --- | --- | --- | --- |
| CN(C)CCc1c[nH]c2cccc(O)c12 [psilocin] | non-toxic | – | – | – | – | – | – | – | – |
| CN(C)CCc1c[nH]c2cccc(OP(=O)(O)O)c12 [psilocybin] | non-toxic | safe | did not induce any sign of discomfort/intoxication | devoid of side effects on motor activity or stereotypies | did not affect the performance of WT animals | poorer cognitive performance; also recorded: detrimental effect | without affecting the performance of WT animals | without affecting the performance of WT animals | without affecting the performance |
